Structures are written as SMILES. Entries after “also recorded” stand apart in the source; their conditions may differ.

Consider two molecules from patent publication US20260137807A1, “COMPOSITIONS AND METHODS FOR DELIVERING A MACROMOLECULE TO A CELL” (AstraZeneca AB, priority 2022, published 2026).

One data set concerns mCherry-GAL9 cells. As to the kind of experiment: mCherry-GAL9 assay in live cells for 4 hours, screening. The settings on record: 5 μM (FIG. 6-8). The data set is classed as cell-based. The method, then: Cells were subjected to a 10-point concentration dilution (0-15 μM) for 2 hours and then fixed and imaged (FIG. 3 and FIG. 4). Images were analyzed and curves were generated from both mCherry-GAL9 puncta quantitation and cell survival as determined by nuclear morphology (FIG. 5). The GAL9 recruitment response support the functional splice-switching data with SSOs, confirming the mCherry-GAL9 assay as a powerful tool for screening endosomolytic compounds and supporting the hypothesis that AZ2467 (Compound 6) and AZ4800 (Compound 2) promote SSO activity by inducing endosomal rupture. The GAL9 assay was again conducted, this time in live cells for 4 hours with select compounds for screening. Compounds were screened at 5 μM (FIG. 6-8) or 0.3125-10 μM (FIG. 35-38). FIG. 39 and FIG. 47 provide results for select compounds at various doses 0.3125-10 μM.

Data set [1] in a line: Nanoparticle tracking analysis (NTA). Conditions: 1 μm or 5 μm oligonucleotide incubated with 5 μm AZ4800 for 2 hours. The class given is physicochemical. The method, then:
Many SSO transfection reagents work through complexation or association with the SSO. A nanoparticle tracking analysis (NTA) was performed to determine whether Compound 2 induced aggregation of oligonucleotides in cell media.
SSO was incubated in cell growth media with and without Compound 2 at 37° C. for 2 hours, mimicking the treatment plan shown in FIG. 10. Analysis was carried out with a Nanosight NS500 instrument running NTA 2.3 analytical software. A script that records 5×30 second videos in light-scatter mode was run with a camera level of 13. Analysis of the videos was then performed with screen gain set to 10 and a detection threshold at 7.

For data set [2], the system named is different cell lines (mCherry-GAL9). As to the kind of experiment: mCherry-GAL9 response between different cell lines. The settings on record: 0.31 to 10 μM, 2 hours post-dosing, FIG. 41 and 48. The data set is classed as cell-based. The method, then:
All of the stable cell lines generated from HeLa and Huh7 cells were maintained and cultivated in Dulbecco's modified Eagle's medium (DMEM) with high glucose with GlutaMAX (Gibco, cat. no. 31966-021), 10% fetal bovine serum (gibco, cat. no. 10270-106), and 1% penicillin-streptomycin (gibco, cat. no. 15140-122) at 37° C., 5% CO2 in 95% humidity in T75 TC flask (Sarstedt, 83.3911.002). The cells were detached (trypsin 0.25% EDTA, 10 min) and passaged twice a week. HEK293 and HeLa, HepG2, Huh7 and U2OS mCherry-GAL9 cell lines were maintained in DMEM, NCI-H358 mCherry-GAL9 were maintained in RPMI (Gibco: 32430-027) and SH-SY5Y mCherry-GAL9 were maintained in DMEM/F12 (Gibco: 32430-027). All growth media was supplemented with 10% FBS and 1 μg/ml Puromycin (Gibco: A11138-03) to maintain reporter expression. All cells were routinely tested and mycoplasma negative.
HeLa and Huh7 cells were further submitted to the mCherry-GAL9-recruitment analysis with treatment with select compounds and observed for endosomal rupture at various time points (1 hour, 2 hours, and 16 hours). GAL9 response results at different doses (1.25-5 μM) of the selected compounds are shown in FIG. 33 (Huh7 cells) and FIG. 34 (HeLa cells). […] FIG. 40 further provides additional results comparing time (0.25 to 4 hours), dose of select compounds (0.31 to 10 μM) and GAL9 response in Huh7 cells. […]

For a further data set, the system named is Floxed mice. The data set can be described thus: Co-delivery of Cre recombinase, in vivo editing tdTomato reporter, ICV. As to the method:
Cre recombinase ([…] […] […] […] […] […] […] (SEQ ID NO: 10)) was co-administered with Compound 4 to assess improvement in editing efficiency in an in vivo reporter system, in which edited mice express tdTomato. Floxed mice were administered via intracerebroventricular injection (ICV) with 60 pmol Cre recombinase and varying concentrations (2.5, 5.0, 7.5, 10.0, 12.5, and 15 μM) of Compound 4 as calculated in 40 μL CSF volume. Brain segments were analyzed by immunofluorescent staining 7 days post-treatment.

Data set [3] deals with anti-CD3/28 stimulated T cells. As to the kind of experiment: Co-delivery of Cre recombinase, ex vivo editing of T cells. The class given is cell-based, mice. The method, then: The combination of Cre recombinase with Compound 4 was also tested in ex vivo editing of anti-CD3/28 stimulated T cells. […], then treated with 2.5 μM of Compound 4 with varying concentrations of Cre recombinase (50, 100, 200, 500 and 1000 nM), either on a U-plate with no mixing (T1) or mixed in a tube shaker during treatment (T2).

Setting [4] is: non-activated T cells, FIG. 45A.

Take `COc1nn(C2CCNCC2)cc1Nc1ncc(Cl)c(-n2ccc3c(C#N)cccc32)n1` [Compound 2]: in the data set on mCherry-GAL9 cells, the “GAL9 recruitment, reason for selection for further characterization” value is on record as “efficacy at shorter-term timepoints”. In data set [1], the “particle size profile of oligonucleotide in cell growth media” value is reported as “No significant differences in particle size; also recorded: no significant changes in particle size profile”.

In the case of `COc1nn(C2CCNCC2)cc1Nc1ncc(F)c(-n2ccc3c(C#N)cccc32)n1` [Compound 4], in data set [2], the “GAL9 response between different cell lines” value is given as “GAL9 responses across multiple cell lines of diverse background origins”. Moreover, in the data set with Floxed mice (ICV, 60 pmol Cre, 2.5-15 μM compound, 7 days post-treatment), the “in vivo editing in the brain (tdTomato staining)” value was “enhanced by Compound 4 in a dose-dependent manner”. Besides, the “staining in the lumbar sections of the spinal cord” value in the data set with Floxed mice (ICV, 60 pmol Cre, FIG. 44B) is “obvious staining”. Also, the location of editing result in the data set on Floxed mice (dissection segments, FIG. 44C) is “primarily at the injection site”. For the same molecule, in data set [3] (activated T cells, 2.5 μM compound, FIG. 45C), the editing efficiency entry is “greater than 90%”. Also, the proliferative capacity entry in data set [3] (activated T cells, FIG. 45C) is “without affecting proliferative capacity”. Besides, in data set [3] (setting [4]), the editing result is reported as “highly edited” and the proliferation rate entry is given as “compromised”.
